Data as given in ChEMBL document CHEMBL5052842, “Pharmaceutical compounds and their use as inhibitors of ubiquitin specific protease 19 (usp19)” (2020).

Target: T1, Ubiquitin carboxyl-terminal hydrolase 19 (Homo sapiens, UniProt O94966)
T1 sequence (O94966 whole entry): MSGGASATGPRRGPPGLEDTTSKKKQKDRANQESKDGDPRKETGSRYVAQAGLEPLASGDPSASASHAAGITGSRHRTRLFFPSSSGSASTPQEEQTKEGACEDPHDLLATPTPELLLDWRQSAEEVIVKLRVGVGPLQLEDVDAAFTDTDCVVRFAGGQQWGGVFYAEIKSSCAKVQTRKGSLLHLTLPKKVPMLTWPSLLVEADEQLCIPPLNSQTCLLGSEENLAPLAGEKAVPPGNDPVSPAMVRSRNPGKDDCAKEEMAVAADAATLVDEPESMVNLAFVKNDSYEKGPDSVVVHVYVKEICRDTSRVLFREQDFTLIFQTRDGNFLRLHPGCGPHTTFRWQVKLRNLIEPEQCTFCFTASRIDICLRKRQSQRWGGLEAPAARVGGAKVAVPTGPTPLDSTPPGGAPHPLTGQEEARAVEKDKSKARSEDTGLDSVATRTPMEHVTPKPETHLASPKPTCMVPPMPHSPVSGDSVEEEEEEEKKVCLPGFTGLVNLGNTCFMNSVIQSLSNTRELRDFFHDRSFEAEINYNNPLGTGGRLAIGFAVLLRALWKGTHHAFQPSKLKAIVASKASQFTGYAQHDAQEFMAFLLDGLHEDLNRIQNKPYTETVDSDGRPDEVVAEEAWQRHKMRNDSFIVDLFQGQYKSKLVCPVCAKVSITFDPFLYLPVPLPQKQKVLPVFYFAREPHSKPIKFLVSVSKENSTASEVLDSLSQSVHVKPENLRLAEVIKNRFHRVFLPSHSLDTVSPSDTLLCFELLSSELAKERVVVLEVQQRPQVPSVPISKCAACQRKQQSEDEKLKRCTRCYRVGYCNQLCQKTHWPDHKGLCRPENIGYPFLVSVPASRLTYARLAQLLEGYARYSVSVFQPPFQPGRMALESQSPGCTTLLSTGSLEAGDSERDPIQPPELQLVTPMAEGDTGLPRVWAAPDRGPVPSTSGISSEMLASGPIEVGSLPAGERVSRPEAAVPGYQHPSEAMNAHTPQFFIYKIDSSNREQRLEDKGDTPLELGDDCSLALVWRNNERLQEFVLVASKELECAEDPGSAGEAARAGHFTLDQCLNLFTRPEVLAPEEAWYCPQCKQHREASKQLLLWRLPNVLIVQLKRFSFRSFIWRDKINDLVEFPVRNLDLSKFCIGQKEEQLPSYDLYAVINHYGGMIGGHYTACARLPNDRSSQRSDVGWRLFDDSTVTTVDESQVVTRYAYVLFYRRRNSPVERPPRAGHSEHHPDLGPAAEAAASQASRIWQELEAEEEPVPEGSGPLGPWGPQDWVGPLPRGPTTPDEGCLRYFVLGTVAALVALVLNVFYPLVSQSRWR
Assay: Inhibition of C-terminal His6-tagged recombinant human USP19 using iso-peptide ubiquitin-Lys-TAMRA as substrate incubated for 30 mins and measured after 90 mins by fluorescent polarization assay

| IC50 [nM] | SMILES |
| --- | --- |
| < 500 | O=C(N1CC[C@@](O)(Cn2cnc(-c3ccccc3F)cc2=O)C2(CCCC2)C1)N1CCNC[C@H]1c1cc(F)cc(F)c1 |
| < 500 | O=C(N1CC[C@@](O)(Cn2cnc(-c3ccccc3)cc2=O)C2(CCCC2)C1)N1CCNC[C@H]1c1cc(F)ccc1F |
| < 500 | O=C(N1CC[C@@](O)(Cn2cnc(-c3cccc(F)c3)cc2=O)C2(CCCC2)C1)N1CCNC[C@H]1c1cc(F)ccc1F |
| < 500 | Cc1cccc(-c2cc(=O)n(C[C@]3(O)CCN(C(=O)N4CCNC[C@H]4c4cc(F)ccc4F)CC34CCCC4)cn2)c1 |
| < 500 | O=C(N1CC[C@@](O)(Cn2cnc(-c3ccccc3F)cc2=O)C2(CCCC2)C1)N1CCNC[C@H]1c1cc(F)ccc1F |
| < 500 | COc1ccccc1-c1cc(=O)n(C[C@]2(O)CCN(C(=O)N3CCNC[C@H]3c3cc(F)ccc3F)CC23CCCC3)cn1 |
| < 500 | O=C(N1CC[C@@](O)(Cn2cnc(-c3ccccc3F)cc2=O)C2(CCCC2)C1)N1CCNC[C@H]1c1cccc(F)c1 |
| < 500 | O=C(N1CC[C@@](O)(Cn2ccc(-c3ccccc3)cc2=O)C2(CCCC2)C1)N1CCNC[C@H]1c1cc(F)ccc1F |
| < 500 | O=C(N1CC[C@@](O)(Cn2cnc(-c3ccccc3)cc2=O)C2(CCCC2)C1)N1CCSC[C@H]1c1cc(F)ccc1F |
| < 500 | O=C(N1CC[C@@](O)(Cn2cnc(C3CC3)cc2=O)C2(CCCC2)C1)N1CCNC[C@H]1c1cc(F)ccc1F |
| < 500 | O=C(N1CC[C@@](O)(Cn2cnc(N3CC4CC4C3)cc2=O)C2(CCCC2)C1)N1CCNC[C@H]1c1cc(F)ccc1F (some centres undefined) |
| < 500 | O=C(N1CC[C@@](O)(Cn2cnc(-c3ccccc3)cc2=O)C2(CCCC2)C1)N1CCNC[C@H]1c1cccc(F)c1F |
| < 500 | O=C(N1CC[C@@](O)(Cn2cnc(-c3ccccc3)cc2=O)C2(CCCC2)C1)N1CCNC[C@H]1c1ccc(F)cc1 |
| < 500 | O=C(N1CC[C@@](O)(Cn2cnc(-c3cccc(F)c3F)cc2=O)C2(CCCC2)C1)N1CCNC[C@H]1c1ccccc1 |
| < 500 | COc1ccccc1-c1cc(=O)n(C[C@]2(O)CCN(C(=O)N3CCNC[C@H]3c3cccc(F)c3)CC23CCCC3)cn1 |
| < 500 | O=C(N1CC[C@@](O)(Cn2cnc(C3CC3)cc2=O)C2(CCCC2)C1)N1CCNC[C@H]1c1cccc(F)c1 |
| < 500 | O=C(N1CC[C@@](O)(Cn2cnc(-c3ccccc3)cc2=O)C2(CCCC2)C1)N1CCNCC1c1ccc(F)c(F)c1 (some centres undefined) |
| < 500 | O=C(N1CC[C@@](O)(Cn2cnc(-c3ccccc3)cc2=O)C2(CCCC2)C1)N1CCNCC1c1ccccc1F (some centres undefined) |
| < 500 | O=C(N1CC[C@@](O)(Cn2cnc(-c3cccc(F)c3)cc2=O)C2(CCCC2)C1)N1CCNC[C@H]1c1cccc(F)c1 |
| < 500 | O=C(N1CC[C@@](O)(Cn2cnc(-c3ccccc3)cc2=O)C2(CCCC2)C1)N1CCNCC1c1cc(F)cc(F)c1 (some centres undefined) |
| < 500 | O=C(N1CC[C@@](O)(Cn2cnc(-c3ccccc3)cc2=O)C2(CCCC2)C1)N1CCNC[C@H]1c1ccc(F)cc1F |

Continued, compound first:

| SMILES | IC50 [nM] |
| --- | --- |
| Cn1ccc(-c2cc(=O)n(C[C@]3(O)CCN(C(=O)N4CCNC[C@H]4c4ccccc4)CC34CCCC4)cn2)n1 | < 500 |
| COc1cccc(-c2cc(=O)n(C[C@]3(O)CCN(C(=O)N4CCNC[C@H]4c4ccccc4)CC34CCCC4)cn2)c1 | < 500 |
| COc1ccc(-c2cc(=O)n(C[C@]3(O)CCN(C(=O)N4CCNC[C@H]4c4ccccc4)CC34CCCC4)cn2)s1 | < 500 |
| O=C(N1CC[C@@](O)(Cn2cnc(N3CCC(F)CC3)cc2=O)C2(CCCC2)C1)N1CCNC[C@H]1c1ccccc1 | < 500 |
| C[C@@]1(c2ccccc2)CNCCN1C(=O)N1CC[C@@](O)(Cn2cnc(-c3ccccc3)cc2=O)C2(CCCC2)C1 | < 500 |
| O=C(N1CC[C@@](O)(Cn2cnc(N3CC4CC4C3)cc2=O)C2(CCCC2)C1)N1CCNC[C@H]1c1ccccc1 (some centres undefined) | < 500 |
| O=C(N1CC[C@@](O)(Cn2ccc(-c3ccccc3F)cc2=O)C2(CCCC2)C1)N1CCNC[C@H]1c1cccc(F)c1 | < 500 |
| Cn1nc(C(F)(F)F)cc1-c1cc(=O)n(C[C@]2(O)CCN(C(=O)N3CCNC[C@H]3c3ccccc3)CC23CCCC3)cn1 | < 500 |
| O=C(N1CC[C@@](O)(Cn2cnc(-c3ccsc3)cc2=O)C2(CCCC2)C1)N1CCNC[C@H]1c1ccccc1 | < 500 |
| O=C(N1CC[C@@](O)(Cn2cnc(-c3ccccc3C(F)F)cc2=O)C2(CCCC2)C1)N1CCNC[C@H]1c1ccccc1 | < 500 |
| COc1ccc(F)cc1-c1cc(=O)n(C[C@]2(O)CCN(C(=O)N3CCNC[C@H]3c3ccccc3)CC23CCCC3)cn1 | < 500 |
| O=C(N1CC[C@@](O)(Cn2cnc(-c3ccccc3)cc2=O)C2(CCCC2)C1)N1CCS(=O)(=O)C[C@H]1c1cc(F)ccc1F | < 500 |
| O=C(N1CC[C@@](O)(Cn2cnc(-c3ccc4c(c3)CCO4)cc2=O)C2(CCCC2)C1)N1CCNC[C@H]1c1ccccc1 | < 500 |
| O=C(N1CC[C@@](O)(Cn2cnc(N3CCC(F)(F)CC3)cc2=O)C2(CCCC2)C1)N1CCNC[C@H]1c1ccccc1 | < 500 |
| O=C(N1CC[C@@](O)(Cn2cnc(-c3ccccc3)cc2=O)C2(CCCC2)C1)N1CCNCC1c1ccc(C(F)(F)F)cc1 (some centres undefined) | < 500 |
| O=C(N1CC[C@@](O)(Cn2cnc(-c3ccccc3C(F)(F)F)cc2=O)C2(CCCC2)C1)N1CCNC[C@H]1c1ccccc1 | < 500 |
| O=C(N1CC[C@@](O)(Cn2cnc(-c3ccc(OC4CC4)cc3)cc2=O)C2(CCCC2)C1)N1CCNC[C@H]1c1ccccc1 | < 500 |
| O=C(N1CC[C@@](O)(Cn2cnc(-c3ccccc3)cc2=O)C2(CCCC2)C1)N1CCNCC1c1ccsc1 (some centres undefined) | < 500 |
| O=C1CN(C(=O)N2CC[C@@](O)(Cn3cnc(-c4ccccc4)cc3=O)C3(CCCC3)C2)[C@H](c2ccccc2)CN1 | < 500 |

| SMILES | IC50 [nM] |
| --- | --- |
| O=C(N1CC[C@@](O)(Cn2cnc(N3CCCC(F)(F)C3)cc2=O)C2(CCCC2)C1)N1CCNC[C@H]1c1ccccc1 | < 500 |
| O=C(N1CC[C@@](O)(Cn2cnc(N3CCCCC3)cc2=O)C2(CCCC2)C1)N1CCNC[C@H]1c1ccccc1 | < 500 |
| Cc1cccc(F)c1-c1cc(=O)n(C[C@]2(O)CCN(C(=O)N3CCNC[C@H]3c3ccccc3)CC23CCCC3)cn1 | < 500 |
| Cc1ccc(-c2cc(=O)n(C[C@]3(O)CCN(C(=O)N4CCNC[C@H]4c4ccccc4)CC34CCCC4)cn2)cc1 | < 500 |
| O=C(N1CC[C@@](O)(Cn2cnc(-c3ccc4c(c3)OCC4)cc2=O)C2(CCCC2)C1)N1CCNC[C@H]1c1ccccc1 | < 500 |
| COc1c(F)cccc1-c1cc(=O)n(C[C@]2(O)CCN(C(=O)N3CCNC[C@H]3c3ccccc3)CC23CCCC3)cn1 | < 500 |
| Cc1cccc(-c2cc(=O)n(C[C@]3(O)CCN(C(=O)N4CCNC[C@H]4c4ccccc4)CC34CCCC4)cn2)c1 | < 500 |
| O=C(N1CC[C@@](O)(Cn2cnc(-c3ccccc3OC(F)F)cc2=O)C2(CCCC2)C1)N1CCNC[C@H]1c1ccccc1 | < 500 |
| O=C(N1CC[C@@](O)(Cn2cnc(-c3cccs3)cc2=O)C2(CCCC2)C1)N1CCNC[C@H]1c1ccccc1 | < 500 |
| O=C(N1CC[C@@](O)(Cn2cnc(-c3ccc(Cl)cc3)cc2=O)C2(CCCC2)C1)N1CCNC[C@H]1c1ccccc1 | < 500 |
| O=C(N1CC[C@@](O)(Cn2cnc(-c3ccccc3OC(F)(F)F)cc2=O)C2(CCCC2)C1)N1CCNC[C@H]1c1ccccc1 | < 500 |
| O=C(N1CC[C@@](O)(Cn2cnc(-c3ccccc3OC3CC3)cc2=O)C2(CCCC2)C1)N1CCNC[C@H]1c1ccccc1 | < 500 |
| O=C(N1CC[C@@](O)(Cn2cnc(-c3ccccc3)cc2=O)C2(CCCC2)C1)N1CCNCC1c1cccs1 (some centres undefined) | < 500 |
| Cc1ccccc1-c1cc(=O)n(C[C@]2(O)CCN(C(=O)N3CCNC[C@H]3c3ccccc3)CC23CCCC3)cn1 | < 500 |
| O=C(N1CC[C@@](O)(Cn2cnc(N3CCC(F)(F)C3)cc2=O)C2(CCCC2)C1)N1CCNC[C@H]1c1ccccc1 | < 500 |
| O=C(N1CC[C@@](O)(Cn2cnc(N3CC(F)(F)C3)cc2=O)C2(CCCC2)C1)N1CCNC[C@H]1c1ccccc1 | < 500 |
| COc1cccc(F)c1-c1cc(=O)n(C[C@]2(O)CCN(C(=O)N3CCNC[C@H]3c3ccccc3)CC23CCCC3)cn1 | < 500 |
| O=C(N1CC[C@@](O)(Cn2cnc(-c3ccc4c(c3)COC4)cc2=O)C2(CCCC2)C1)N1CCNC[C@H]1c1ccccc1 | < 500 |
| COc1ccc(-c2cc(=O)n(C[C@]3(O)CCN(C(=O)N4CCNC[C@H]4c4ccccc4)CC34CCCC4)cn2)cc1 | < 500 |
